Values after ≈ are worked out from the molar mass of the structure shown. Where two headings read alike, the source gives them in different places.
Tests used:
Format in all cases: cell-based
[1] = system: broad panel of different clinical isolates; assay: microbe, parasite or virus in culture
In short: (§1)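 Per CLSI, MICs by broth microdilution or agar dilution; strains other than streptococci and anaerobes were sub-cultured overnight at 35° C on blood agar, with a final broth inoculum of 5×10^5 CFU/mL.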

E. coli ΔTolC = assay: microbe, parasite or virus in culture; conditions: Escherichia coli
In short: as §1

[2] = system: S. pyogenes MMX 946; cErmB; assay: MIC (broth microdilution or agar dilution, CLSI); conditions: for MIC: cErmB
In short: as §1

S. aureus ATCC 29213 = assay: MIC (broth microdilution or agar dilution, CLSI); conditions: Staphylococcus aureus, read-out: MIC
In short: as §1

S. pneumoniae ATCC 6303 = assay: MIC (broth microdilution or agar dilution, CLSI)
In short: as §1

S. pneumoniae ATCC 49619 = assay: MIC (broth microdilution or agar dilution, CLSI); conditions: Streptococcus pneumoniae, ATCC49619, S. pneumoniae HAV#003, ATCC 49619; read-out: MIC
In short: as §1

K. pneumoniae ATCC 10031 = assay: MIC (broth microdilution or agar dilution, CLSI); conditions: Klebsiella pneumoniae, ATCC10031, K. pneumoniae HAV#008, ATCC 10031; read-out: MIC
In short: as §1

[3] = system: S. pneumoniae MMX 3031 cMefA; assay: MIC (broth microdilution or agar dilution, CLSI); conditions: Streptococcus pneumoniae, MMX3031CMEFA, read-out: MIC
In short: as §1

S. pyogenes ATCC 19615 = assay: MIC (broth microdilution or agar dilution, CLSI); conditions: Streptococcus pyogenes, read-out: MIC
In short: as §1

[4] = system: E. faecalis MMX 847; cErmB; assay: MIC (broth microdilution or agar dilution, CLSI); conditions: cErmB
In short: as §1

[5] = system: S. pneumoniae MMX 3028 cErmB; assay: MIC (broth microdilution or agar dilution, CLSI)
In short: as §1

E. coli ATCC 25922 = assay: MIC (broth microdilution or agar dilution, CLSI)
In short: as §1

[6] = system: S. aureus ATCC BAA-1707 (MRSA); assay: MIC (broth microdilution or agar dilution, CLSI)
In short: as §1

S. aureus MMX 3035 cErmA = assay: MIC (broth microdilution or agar dilution, CLSI)
In short: as §1

E. coli LptD = assay: MIC (broth microdilution or agar dilution, CLSI); conditions: Escherichia coli, read-out: MIC
In short: as §1

S. aureus ATCC 700699 = assay: MIC (broth microdilution or agar dilution, CLSI); conditions: Staphylococcus aureus, read-out: MIC
In short: as §1

In the case of `CSC1O[C@H]([C@H](NC(=O)[C@H]2NC[C@@H]3C[C@H](CC(C)C)CCO[C@H]32)[C@H](C)Cl)C(O)[C@@H](O)[C@H]1O` (some centres unmarked) [FSA-513018b], the MIC ([1]; Neisseria gonorrhoeae, N. gonorrhoeae HAV#702, Clinical) was 0.125 µg/mL (≈ 0.252 µM), the MIC ([1]; Staphylococcus aureus, MRSA, S. aureus HAV#218, Line R) was 0.125 µg/mL (≈ 0.252 µM) and the MIC ([1]; Staphylococcus aureus, MRSA, S. aureus HAV#220, Line R) was > 128 µg/mL. The MIC ([1]; Staphylococcus aureus, MSSA, S. aureus HAV#219, Line R) was > 128 µg/mL, the MIC ([1]; Staphylococcus aureus, S. aureus HAV#051, mecA, norA, spcl, ermA, aad1, aac6′-aph2″) was ≤ 0.03 µg/mL and the MIC ([1]; Staphylococcus aureus, S. aureus HAV#052, mecA, norA, fosB, blaZ) was ≤ 0.03 µg/mL. For the same molecule, the MIC ([1]; Staphylococcus aureus, S. aureus HAV#053 mecA, norA, fosB) was ≤ 0.03 µg/mL, the MIC ([1]; Staphylococcus aureus, S. aureus HAV#211, Clinical) was 2 µg/mL (≈ 4.04 µM) and the MIC ([1]; Staphylococcus aureus, S. aureus HAV#212, Clinical) was 0.06 µg/mL (≈ 0.121 µM). The MIC ([1]; Staphylococcus aureus, S. aureus HAV#213, Clinical) was 0.06 µg/mL (≈ 0.121 µM), the MIC ([1]; Staphylococcus aureus, S. aureus HAV#214, Clinical) was 0.03 µg/mL (≈ 0.0606 µM) and the MIC ([1]; Staphylococcus aureus, S. aureus HAV#215, Clinical) was 0.06 µg/mL (≈ 0.121 µM). For the same molecule, the MIC ([1]; Staphylococcus aureus, S. aureus HAV#216, Clinical, cfr) was 2 µg/mL (≈ 4.04 µM), the MIC ([1]; Staphylococcus aureus, VISA, S. aureus HAV#203, Clinical (VISA)) was 1 µg/mL (≈ 2.02 µM) and the MIC ([1]; Staphylococcus epidermidis, S. epidermidis HAV# 275 Clinical, cfr) was 8 µg/mL (≈ 16.2 µM). For the same molecule, the MIC ([1]; Staphylococcus epidermidis, S. epidermidis HAV# 276, cfr) was > 16 µg/mL, the MIC ([1]; Staphylococcus epidermidis, S. epidermidis HAV#277, Line R) was 16 µg/mL (≈ 32.3 µM) and the MIC ([1]; Staphylococcus epidermidis, S. epidermidis HAV#278 Line R) was 32 µg/mL (≈ 64.6 µM). It also gave an MIC ([1]; Staphylococcus epidermidis, S. epidermidis HAV#279, Line R) of 0.125 µg/mL (≈ 0.252 µM), an MIC ([1]; Staphylococcus haemolyticus, S. haemolyticus 5052, Line R & Methicillin R) of 0.06 µg/mL (≈ 0.121 µM) and an MIC ([1]; Staphylococcus haemolyticus, S. haemolyticus HAV#252, Line R & Methicillin R) of 0.125 µg/mL (≈ 0.252 µM). The MIC ([1]; Streptococcus pneumoniae, ATCC700673, S. pneumoniae HAV#352, ATCC 700673, MDR) was 0.5 µg/mL (≈ 1.01 µM), the MIC ([1]; Streptococcus pneumoniae, ATCCBAA255, S. pneumoniae HAV#354, ATCC-BAA-255) was 0.125 µg/mL (≈ 0.252 µM) and the MIC ([1]; Streptococcus pneumoniae, ATCCBAA334, S. pneumoniae HAV#353, ATCC-BAA-334) was 0.125 µg/mL (≈ 0.252 µM). For the same molecule, the MIC ([1]; Streptococcus pneumoniae, S. pneumoniae HAV#356, Clinical) was 0.25 µg/mL (≈ 0.505 µM), the MIC ([1]; Streptococcus pneumoniae, S. pneumoniae HAV#358, Clinical) was 0.125 µg/mL (≈ 0.252 µM) and the MIC (E. coli ΔTolC; E. coli HAV#038, ΔTolC) was 0.5 µg/mL (≈ 1.01 µM). For the same molecule, the MIC (E. coli ΔTolC; E. coli ΔTolC) was 0.5 µg/mL (≈ 1.01 µM), the MIC ([2]; S. pyogenes HAV#035, MMX 946, mac-resistant) was 0.25 µg/mL (≈ 0.505 µM) and the “MIC lower than that of clindamycin (fold)” value ([2]; S. pyogenes, c-ermB-mediated resistance) was ≥ 1,000 ×. For the same molecule, the MIC ([2]; Streptococcus pyogenes, S. pyogenes MMX 946, read-out: MIC) was 0.25 µg/mL (≈ 0.505 µM), the MIC (S. aureus ATCC 29213; ATCC29213, S. aureus ATCC 29213) was ≤ 0.06 µg/mL and the MIC (S. aureus ATCC 29213; ATCC29213, S. aureus HAV#001, ATCC 29213, MP-549) was 0.06 µg/mL (≈ 0.121 µM). The MIC (S. pneumoniae ATCC 6303; S. pneumoniae HAV#351, ATCC 6303) was 0.03 µg/mL (≈ 0.0606 µM), the MIC (S. pneumoniae ATCC 6303; Streptococcus pneumoniae, ATCC6303, S. pneumoniae ATCC 6303, read-out: MIC) was 0.03 µg/mL (≈ 0.0606 µM) and the MIC (S. pneumoniae ATCC 49619) was 0.015 µg/mL (≈ 0.0303 µM). For the same molecule, the MIC (K. pneumoniae ATCC 10031) was 0.25 µg/mL (≈ 0.505 µM), the MIC ([3]; S. pneumoniae HAV#034, MMX 3031, cMefA) was 0.03 µg/mL (≈ 0.0606 µM) and the MIC ([3]; S. pneumoniae MMX 3031 cMefA) was ≤ 0.06 µg/mL. The MIC (S. pyogenes ATCC 19615; ATCC19615, S. pyogenes ATCC 19615) was ≤ 0.06 µg/mL, the MIC (S. pyogenes ATCC 19615; ATCC19615, S. pyogenes HAV#004, ATCC 19615) was 0.03 µg/mL (≈ 0.0606 µM) and the MIC ([4]; E. faecalis HAV#036, MMX 847, mac-resistant) was 1 µg/mL (≈ 2.02 µM). For the same molecule, the MIC ([4]; Enterococcus faecalis, E. faecalis MMX 847, read-out: MIC) was 1 µg/mL (≈ 2.02 µM), the MIC ([5]; S. pneumoniae HAV#033, MMX 3028, cErmB) was 0.25 µg/mL (≈ 0.505 µM) and the “MIC lower than that of clindamycin (fold)” value ([5]; S. pneumoniae, c-ermB-mediated resistance) was ≥ 1,000 ×. The MIC ([5]; Streptococcus pneumoniae, MMX3028CERMB, S. pneumoniae MMX 3028 cErmB, read-out: MIC) was 0.25 µg/mL (≈ 0.505 µM), the MIC (E. coli ATCC 25922; E. coli HAV#006, ATCC 25922) was 8 µg/mL (≈ 16.2 µM) and the MIC (E. coli ATCC 25922; Escherichia coli, ATCC25922, E. coli ATCC 25922, read-out: MIC) was 8 µg/mL (≈ 16.2 µM). The MIC ([6]; S. aureus HAV#016, ATCC BAA-1707, MRSA) was 0.06 µg/mL (≈ 0.121 µM), the MIC ([6]; Staphylococcus aureus, S. aureus ATCC BAA-1707 (MRSA), read-out: MIC) was 0.06 µg/mL (≈ 0.121 µM) and the MIC (S. aureus MMX 3035 cErmA; S. aureus HAV#031, MMX 3035, cErmA) was 4 µg/mL (≈ 8.08 µM). It also gave an MIC (S. aureus MMX 3035 cErmA; Staphylococcus aureus, MMX3035CERMA, S. aureus MMX 3035 cErmA, read-out: MIC) of 4 µg/mL (≈ 8.08 µM), an MIC (E. coli LptD; E. coli HAV#040, LptD) of 1 µg/mL (≈ 2.02 µM) and an MIC (E. coli LptD; E. coli LptD) of 1 µg/mL (≈ 2.02 µM). It also gave an MIC (S. aureus ATCC 700699; ATCC700699, S. aureus ATCC 700699) of 2 µg/mL (≈ 4.04 µM) and an MIC (S. aureus ATCC 700699; S. aureus HAV#202, ATCC 700699 (VISA)) of 2 µg/mL (≈ 4.04 µM).

— patent US20230203081A1, “LINCOSAMIDE ANTIBIOTICS AND USES THEREOF” (President and Fellows of Harvard College, priority 2020, published 2023)
